Assay results published in patent US20220151236A1, “NOVEL OXADIAZOLE COMPOUNDS FOR CONTROLLING OR PREVENTING PHYTOPATHOGENIC FUNGI” (PI INDUSTRIES LTD., priority 2019, published 2022).

Tested on: Phakopsora pachyrhizi
Assay: Phakopsora pachyrhizi Test on Soybean (preventive activity, greenhouse)
Format: in vivo
Conditions: preventive spray on young Soybean plants, inoculated one day after treatment, rated 3, 7, 10 and 15 days after application, read-out: Efficacy (% control), disease severity compared to the untreated check
Procedure: Compounds were dissolved in 2% dimethyl sulfoxide/acetone and then mixed with water containing an emulsifier to a calibrated spray volume of 50 mL. This 50 mL spray solution was poured into spray bottles for further applications. To test the preventive activity of compounds, healthy young Soybean plants raised in the greenhouse were sprayed with the active compound preparation at the stated application rates inside the spray cabinets using hollow cone nozzles. One day after treatment, the plants were inoculated with a spore suspension containing 2×10^5 Phakopsora pachyrhizi conidia. The inoculated plants were then kept in a greenhouse chamber at 22-24° C. temperature and 80-90% relative humidity for disease expression. A visual assessment of the compound's performance was carried out by rating the disease severity (0-100% scale) on treated plants 3, 7, 10 and 15 days after application. Efficacy (% control) of the compounds was calculated by comparing the disease rating in the treatment with the one of the untreated control. The sprayed plants were also assessed for plant compatibility by recording symptoms like necrosis, chlorosis and stunting.

SMILES	pest or weed control at 500 ppm [%]
COc1cccc(NC(=O)c2cn3ccc(-c4noc(C(F)(F)F)n4)cc3n2)c1 [Compound 1, N-(3-methoxyphenyl)-7-(5-(trifluoromethyl)-1,2,4-oxadiazol-3-yl)imidazo[1,2-a]pyridine-2-carboxamide]	≥ 70
Cc1ccc(NC(=O)c2cn3ccc(-c4noc(C(F)(F)F)n4)cc3n2)cc1 [Compound 3, N-(p-tolyl)-7-(5-(trifluoromethyl)-1,2,4-oxadiazol-3-yl)imidazo[1,2-a]pyridine-2-carboxamide]	≥ 70
O=C(Nc1cccc(F)c1)c1cn2ccc(-c3noc(C(F)(F)F)n3)cc2n1 [Compound 4, N-(3-fluorophenyl)-7-(5-(trifluoromethyl)-1,2,4-oxadiazol-3-yl)imidazo[1,2-a]pyridine-2-carboxamide]	≥ 70
O=C(Nc1ccc(F)cc1F)c1cn2ccc(-c3noc(C(F)(F)F)n3)cc2n1 [Compound 5, N-(2,4-difluorophenyl)-7-(5-(trifluoromethyl)-1,2,4-oxadiazol-3-yl)imidazo[1,2-a]pyridine-2-carboxamide]	≥ 70
O=C(Nc1ccc(Cl)cc1)c1cn2ccc(-c3noc(C(F)(F)F)n3)cc2n1 [Compound 6, N-(4-chlorophenyl)-7-(5-(trifluoromethyl)-1,2,4-oxadiazol-3-yl)imidazo[1,2-a]pyridine-2-carboxamide]	≥ 70
O=C(Nc1ccccc1F)c1cn2ccc(-c3noc(C(F)(F)F)n3)cc2n1 [Compound 7, N-(2-fluorophenyl)-7-(5-(trifluoromethyl)-1,2,4-oxadiazol-3-yl)imidazo[1,2-a]pyridine-2-carboxamide]	≥ 70
O=C(NCc1ccc(C(F)(F)F)cc1)c1cn2ccc(-c3noc(C(F)(F)F)n3)cc2n1 [Compound 8, 7-(5-(trifluoromethyl)-1,2,4-oxadiazol-3-yl)-N-(4-(trifluoromethyl)benzyl)imidazo[1,2-a]pyridine-2-carboxamide]	≥ 70
O=C(Nc1cccnc1)c1cn2ccc(-c3noc(C(F)(F)F)n3)cc2n1 [Compound 9, N-(pyridin-3-yl)-7-(5-(trifluoromethyl)-1,2,4-oxadiazol-3-yl)imidazo[1,2-a]pyridine-2-carboxamide]	≥ 70
O=C(NCc1ccccc1)c1cn2ccc(-c3noc(C(F)(F)F)n3)cc2n1 [Compound 10, N-benzyl-7-(5-(trifluoromethyl)-1,2,4-oxadiazol-3-yl)imidazo[1,2-a]pyridine-2-carboxamide]	≥ 70
O=C(Nc1ccncc1)c1cn2ccc(-c3noc(C(F)(F)F)n3)cc2n1 [Compound 11, N-(pyridin-4-yl)-7-(5-(trifluoromethyl)-1,2,4-oxadiazol-3-yl)imidazo[1,2-a]pyridine-2-carboxamide]	≥ 70
CNC(=O)c1cn2ccc(-c3noc(C(F)(F)F)n3)cc2n1 [Compound 13, N-methyl-7-(5-(trifluoromethyl)-1,2,4-oxadiazol-3-yl)imidazo[1,2-a]pyridine-2-carboxamide]	≥ 70
CN(CCOc1ccccc1)C(=O)c1cn2ccc(-c3noc(C(F)(F)F)n3)cc2n1 [Compound 14, N-methyl-N-(2-phenoxyethyl)-7-(5-(trifluoromethyl)-1,2,4-oxadiazol-3-yl)imidazo[1,2-a]pyridine-2-carboxamide]	≥ 70
N#Cc1ccc(NC(=O)c2cn3ccc(-c4noc(C(F)(F)F)n4)cc3n2)cc1 [Compound 15, N-(4-cyanophenyl)-7-(5-(trifluoromethyl)-1,2,4-oxadiazol-3-yl)imidazo[1,2-a]pyridine-2-carboxamide]	≥ 70
COc1cccc(NC(=O)c2cn3cc(-c4noc(C(F)(F)F)n4)ccc3n2)c1 [Compound 16, N-(3-methoxyphenyl)-6-(5-(trifluoromethyl)-1,2,4-oxadiazol-3-yl)imidazo[1,2-a]pyridine-2-carboxamide]	≥ 70
